What was measured:
[1] = system: normal oral keratinocytes (NOKs), human tonsillar epithelial cells (HTEs), HaCaT keratinocytes and MCF10A cells; assay: Cell proliferation assay; format: cell-based; conditions: 0, 3, 10 or 30 μM peptide, four-day treatment; cell number as % of untreated
[2] = Stability of peptide incubated in human plasma; format: in vitro ADME; conditions: incubated in PBS or human plasma for up to 72h at 37°C, then tested for activity
[3] = Plasma pharmacokinetics in mice; format: in vivo; conditions: single intravenous (i.v.) injection of 0.597 mg/kg
HaCaT keratinocytes = assay: Cell cycle analysis by flow cytometry; format: cell-based, human; conditions: 30 uM peptide, 16 hr
UM-SCC47 cells [4] = assay: Cell cycle analysis by flow cytometry; format: cell-based, human; conditions: UM-SCC47, 30 uM peptide
UM-SCC47 cells [5] = format: cell-based, human; conditions: UM-SCC47, 30 μM peptide for 3 hr, EdU for the last 45 min
NOKs and MCF10A cells = assay: DNA synthesis by EdU incorporation, non-tumorigenic cells; format: cell-based, human; conditions: 30 μM peptide for 1, 3 or 6 hr (up to 16 hr), then EdU 45 min
PCNA = assay: DNA-bound PCNA staining on chromatin; format: cell-based, human; conditions: UM-SCC47, detergent-extracted after 3 hr treatment with 30 μM peptide
p38MAPK = p38MAPK activation; format: cell-based, human; conditions: NOKs, 30 μM peptide, 15 min to 16 hr
Chk1, Chk2, H2AX = assay: DNA damage response effector activation by western blot; format: cell-based, human; conditions: UM-SCC47 or MDA-MB-231 cells, 30 μM peptide up to 6 hr
c-Abl = c-Abl activity; format: cell-based, human; conditions: UM-SCC47, 30 μM peptide for 3 hr

SSTNEGFR
growth of non-tumorigenic cells [1]: not affected | stability in human plasma [2]: remarkably stable | half-life in plasma [3]: ~ 42 hr | cells in G1 (HaCaT keratinocytes): 36.6% | cells in S (HaCaT keratinocytes): 57.0% | cells in G1 (UM-SCC47 cells [4]; 3 hr): 53.1% | cells in G2 (UM-SCC47 cells [4]; 3 hr): 0.0% | cells in S (UM-SCC47 cells [4]; 3 hr): 46.9% | cells in G1 (UM-SCC47 cells [4]; 16 hr): 48.5% | cells in G2 (UM-SCC47 cells [4]; 16 hr): 1.7% | cells in S (UM-SCC47 cells [4]; 16 hr): 49.8% | EdU incorporation (UM-SCC47 cells [5]): near complete loss of EdU incorporation | DNA synthesis (EdU incorporation) (NOKs and MCF10A cells): no inhibition of DNA synthesis | PCNA retention on chromatin (PCNA): loss of PCNA | p38MAPK activation in non-transformed cells (p38MAPK): fail to activate p38MAPK | activation of DNA damage response effectors (Chk1, Chk2, γH2AX) (Chk1, Chk2, H2AX): fails to activate Chk1 or Chk2 | c-Abl activity (pY245, pY412) (c-Abl): inactivates c-Abl

Source: paper doi:10.1101/252742v1 (bioRxiv, 2018)
